Results reported in PubChem BioAssay (NCI).
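Exposure lasted 48 hours, with cells grown in 96-well plates and compounds tested at five concentrations. The concentration for 50% growth inhibition is given as GI50. At the TGI there is no net growth.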

Tests used:
Assay in all cases: NCI tumour cell line growth inhibition, 48 h
[1] = test system: MALME-3M melanoma
[2] = test system: K-562 leukemia
[3] = test system: SF-539 CNS
[4] = test system: SW-620 colon
[5] = test system: RXF 393 renal
[6] = test system: NCI-H226 lung
[7] = test system: RPMI-8226 leukemia
[8] = test system: SF-268 CNS
[9] = test system: SK-MEL-5 melanoma
[10] = test system: T-47D breast
[11] = test system: EKVX NSCLC
[12] = test system: OVCAR-4 ovarian
[13] = test system: U251 CNS
[14] = test system: MOLT-4 leukemia
[15] = test system: MCF7 breast
[16] = test system: DU-145 prostate
[17] = test system: A549 NSCLC
[18] = test system: SF-295 CNS
[19] = test system: CCRF-CEM leukemia
[20] = test system: UACC-257 melanoma
[21] = test system: M14 melanoma
[22] = test system: A498 renal
[23] = test system: UACC-62 melanoma
[24] = test system: HCC-2998 colon
[25] = test system: NCI-H460 lung
[26] = test system: HOP-62 NSCLC
[27] = test system: MDA-MB-231 breast
[28] = test system: PC-3 prostate
[29] = test system: TK-10 renal
[30] = test system: SNB-75 CNS
[31] = test system: OVCAR-5 ovarian
[32] = test system: KM12 colon
[33] = test system: UO-31 renal
[34] = test system: NCI/ADR-RES ovarian
[35] = test system: SNB-19 CNS
[36] = test system: HCT-116 colon
[37] = test system: HS 578T breast
[38] = test system: HCT-15 colon
[39] = test system: NCI-H522 lung
[40] = test system: SN12C renal
[41] = test system: HT29 colon
[42] = test system: CAKI-1 renal
[43] = test system: OVCAR-3 ovarian
[44] = test system: SK-MEL-2 melanoma
[45] = test system: ACHN renal
[46] = test system: NCI-H23 lung
[47] = test system: HL-60(TB) leukemia
[48] = test system: HOP-92 NSCLC
[49] = test system: IGROV1 ovarian
[50] = test system: SR leukemia
[51] = test system: COLO 205 colon
[52] = test system: OVCAR-8 ovarian
[53] = test system: BT-549 breast
[54] = test system: LOX IMVI melanoma
[55] = test system: MDA-MB-435
[56] = test system: SK-OV-3 ovarian
[57] = test system: 786-0 renal
[58] = test system: SK-MEL-28 melanoma

Work on `O=C(Nc1cccc([N+](=O)[O-])c1)c1cc2ccccc2cc1O` yielded a GI50 [1] of 376 nM, a TGI [1] of 2260 nM and a GI50 [2] of 845 nM. It also gave a TGI [2] of 11000 nM, a GI50 [3] of 1570 nM and a TGI [3] of 8840 nM. It also gave a GI50 [4] of 2720 nM, a TGI [4] of 17000 nM and a GI50 [5] of 2570 nM. For the same molecule, the TGI [5] was 9050 nM, the GI50 [6] was 1870 nM and the TGI [6] was 7430 nM. It also gave a GI50 [7] of 146 nM, a TGI [7] of 1060 nM and a GI50 [8] of 2980 nM. It also gave a TGI [8] of over 100000 nM, a GI50 [9] of 1140 nM and a TGI [9] of 3560 nM. It also gave a GI50 [10] of 2470 nM, a TGI [10] of 7880 nM and a GI50 [11] of 1870 nM. For the same molecule, the TGI [11] was 8200 nM, the GI50 [12] was 2610 nM and the TGI [12] was over 100000 nM. It also gave a GI50 [13] of 1480 nM, a TGI [13] of 9270 nM and a GI50 [14] of 2080 nM. For the same molecule, the TGI [14] was 6240 nM, the GI50 [15] was 1360 nM and the TGI [15] was 6210 nM. It also gave a GI50 [16] of 3090 nM, a TGI [16] of over 49600 nM and a GI50 [17] of 2840 nM. The TGI [17] was over 100000 nM, the GI50 [18] was 1960 nM and the TGI [18] was 5330 nM. It also gave a GI50 [19] of 2380 nM, a TGI [19] of 6660 nM and a GI50 [20] of 881 nM. The TGI [20] was 5230 nM, the GI50 [21] was 1580 nM and the TGI [21] was 6680 nM. The GI50 [22] was 1410 nM, the TGI [22] was 6190 nM and the GI50 [23] was 685 nM. The GI50 [24] was 2160 nM, the TGI [24] was 6110 nM and the GI50 [25] was 1870 nM. For the same molecule, the TGI [25] was over 100000 nM, the GI50 [26] was 1190 nM and the TGI [26] was 3720 nM. For the same molecule, the GI50 [27] was 1470 nM, the TGI [27] was 3640 nM and the GI50 [28] was 1490 nM. For the same molecule, the TGI [28] was over 30500 nM, the GI50 [29] was 4030 nM and the TGI [29] was 9460 nM. For the same molecule, the GI50 [30] was 2840 nM, the TGI [30] was 55200 nM and the GI50 [31] was 2550 nM. The TGI [31] was 10300 nM, the GI50 [32] was 2410 nM and the TGI [32] was 6440 nM. The GI50 [33] was 1250 nM, the TGI [33] was 7460 nM and the GI50 [34] was 1760 nM. For the same molecule, the TGI [34] was 6540 nM, the GI50 [35] was 2930 nM and the TGI [35] was over 100000 nM. The GI50 [36] was 772 nM, the TGI [36] was 3170 nM and the GI50 [37] was 1240 nM. It also gave a TGI [37] of 10400 nM, a GI50 [38] of 2750 nM and a TGI [38] of 28300 nM. For the same molecule, the GI50 [39] was 384 nM, the TGI [39] was 2660 nM and the GI50 [40] was 1170 nM. It also gave a TGI [40] of 7780 nM, a GI50 [41] of 3090 nM and a TGI [41] of over 30700 nM. It also gave a GI50 [42] of 1160 nM, a TGI [42] of 4880 nM and a GI50 [43] of 783 nM. The TGI [43] was 7330 nM, the GI50 [44] was 876 nM and the TGI [44] was 2830 nM. It also gave a GI50 [45] of 2030 nM, a TGI [45] of 7790 nM and a GI50 [46] of 720 nM. It also gave a TGI [46] of 3650 nM, a GI50 [47] of 590 nM and a TGI [47] of 3030 nM. For the same molecule, the GI50 [48] was 422 nM, the TGI [48] was 4410 nM and the GI50 [49] was 1300 nM. It also gave a TGI [49] of over 26100 nM, a GI50 [50] of 1460 nM and a TGI [50] of 8170 nM. It also gave a GI50 [51] of 1880 nM, a TGI [51] of 3440 nM and a GI50 [52] of 3310 nM. It also gave a TGI [52] of 26100 nM, a GI50 [53] of 1550 nM and a TGI [53] of 5390 nM. It also gave a GI50 [54] of 1870 nM, a TGI [54] of 7690 nM and a GI50 [55] of 1500 nM. For the same molecule, the TGI [55] was 5410 nM, the GI50 [56] was 1840 nM and the TGI [56] was 6070 nM. For the same molecule, the GI50 [57] was 1280 nM, the TGI [57] was 4740 nM and the GI50 [58] was 3230 nM. For the same molecule, the TGI [58] was over 100000 nM.
